What was measured:
[1] = target: T1, native CFTR, genotype F508del/G551D (Homo sapiens, UniProt P13569, G551D); assay: Ussing chamber CFTR-mediated short-circuit current (Isc) in F508del/G551D human bronchial epithelial cells; type: cell-based; conditions: for EC50: F508del/G551D epithelia of hBE cells, Isc, 35°C, read-out: EC50 (μM) (95% CI); for Emax: HBE, read-out: Maximal effect (%) (95% CI)
T1 construct: For functional studies of native CFTR, we used primary cultures of human bronchial epithelial cells; host or cells: primary human bronchial epithelial cells, F508del/G551D, air-liquid interface cultures, studied at 35°C
T1 sequence (P13569 whole entry F508del/G551D): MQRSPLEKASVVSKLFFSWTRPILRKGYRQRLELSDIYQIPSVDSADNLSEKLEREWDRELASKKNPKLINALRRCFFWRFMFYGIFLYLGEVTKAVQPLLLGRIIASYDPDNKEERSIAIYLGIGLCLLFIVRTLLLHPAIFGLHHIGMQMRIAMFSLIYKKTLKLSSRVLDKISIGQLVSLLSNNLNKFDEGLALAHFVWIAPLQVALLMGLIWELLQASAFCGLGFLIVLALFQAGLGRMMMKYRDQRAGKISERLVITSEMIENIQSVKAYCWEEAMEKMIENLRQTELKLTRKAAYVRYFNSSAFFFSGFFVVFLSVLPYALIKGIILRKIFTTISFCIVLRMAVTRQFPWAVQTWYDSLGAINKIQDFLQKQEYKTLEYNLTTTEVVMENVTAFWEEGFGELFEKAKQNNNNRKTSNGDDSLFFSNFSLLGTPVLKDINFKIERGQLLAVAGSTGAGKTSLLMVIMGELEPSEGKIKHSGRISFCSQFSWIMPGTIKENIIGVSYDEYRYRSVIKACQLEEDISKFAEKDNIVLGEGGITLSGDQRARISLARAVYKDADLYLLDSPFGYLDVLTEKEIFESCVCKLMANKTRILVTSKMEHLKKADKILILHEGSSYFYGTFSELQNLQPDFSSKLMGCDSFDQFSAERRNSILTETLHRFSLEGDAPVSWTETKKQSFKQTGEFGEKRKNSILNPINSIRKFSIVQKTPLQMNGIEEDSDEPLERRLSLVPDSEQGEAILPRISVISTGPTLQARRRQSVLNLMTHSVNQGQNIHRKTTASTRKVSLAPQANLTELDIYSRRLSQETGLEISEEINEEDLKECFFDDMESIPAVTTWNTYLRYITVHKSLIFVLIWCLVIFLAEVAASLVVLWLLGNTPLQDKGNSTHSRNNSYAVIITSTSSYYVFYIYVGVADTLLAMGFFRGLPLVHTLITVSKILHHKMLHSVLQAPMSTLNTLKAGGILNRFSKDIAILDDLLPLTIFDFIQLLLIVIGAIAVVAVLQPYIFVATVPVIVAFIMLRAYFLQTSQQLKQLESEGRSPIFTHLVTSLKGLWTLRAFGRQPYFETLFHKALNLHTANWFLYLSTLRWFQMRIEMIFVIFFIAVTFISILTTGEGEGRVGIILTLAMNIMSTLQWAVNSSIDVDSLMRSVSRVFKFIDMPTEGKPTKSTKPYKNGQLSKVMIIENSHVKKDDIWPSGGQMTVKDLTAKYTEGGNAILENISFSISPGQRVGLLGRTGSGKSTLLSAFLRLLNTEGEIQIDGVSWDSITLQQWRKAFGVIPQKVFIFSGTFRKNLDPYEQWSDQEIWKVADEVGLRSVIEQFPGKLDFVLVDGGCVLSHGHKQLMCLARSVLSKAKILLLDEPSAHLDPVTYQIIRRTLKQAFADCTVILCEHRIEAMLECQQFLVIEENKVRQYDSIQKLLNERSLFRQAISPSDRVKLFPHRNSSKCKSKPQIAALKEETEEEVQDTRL
Excerpt: For functional studies of native CFTR, we used primary cultures of human bronchial epithelial cells of genotypes F508del/F508del and F508del/G551D. Passage 1 (P1) human bronchial epithelial cells from SH Randell (University of North Carolina [UNC] Cystic Fibrosis Center Tissue Procurement and Cell Culture Core) were differentiated at an air–liquid interface as described by Neuberger et al., ([2011]) with some modifications. The research conducted on human cells at UNC has been verified as compliant with Pfizer policies, including institutional review board or institutional ethics committee approval. Cells were thawed and expanded in BEGM™ Bronchial Epithelial Cell Growth Medium (cat. no. CC‐3170, Lonza, USA) supplemented with retinoic acid (10 nM) and banked at P2. For functional assays, P2 cells were expanded to P4, and 5 × 10^5 P4 human bronchial epithelial cells were seeded in growth medium on Snapwell filter inserts (cat. no. 3801, Corning, NY, USA). Cells were switched to differentiation medium the following day and cultured submerged for 3 days before the medium was removed from the apical membrane to establish an air–liquid interface. Thereafter, the basolateral medium was changed every 2–3 days and mucus washed from the apical membrane every 2–3 weeks and the day prior to use starting 21 days after initiating air–liquid interface culture.
After >30 days of air–liquid interface culture on Snapwell filter inserts, human bronchial epithelial cells formed well differentiated, electrically tight epithelia (Rt > 200 Ω cm^2). Prior to study, F508del/F508del and F508del/G551D human bronchial epithelial cell cultures were incubated at 37°C and 5% CO2.
Epithelia were mounted in Ussing chambers and data acquired and analysed as described above for Ussing chamber studies of FRT cells heterologously expressing CFTR with the following exceptions. Both the apical and basolateral membranes were bathed in solutions containing (mM): 137 NaCl, 4 KCl, 1.8 CaCl2, 1 MgCl2, 10 Na HEPES, and 10 glucose (pH 7.4 with NaOH). Epithelia of F508del/G551D human bronchial epithelial cells were studied at 35°C, whereas those of F508del/F508del human bronchial epithelial cells were assayed at 27°C to maintain the apical membrane expression of F508del‐CFTR. After cancelling voltage offsets, transepithelial voltage was clamped at 0 mV and short‐circuit current (Isc) recorded continuously. The protocol to record CFTR‐mediated Isc was the same as for ICl ^apical measurements except that amiloride (30 μM, apical solution) was added to inhibit the epithelial Na^+ channel before forskolin (10 μM, apical and basolateral solutions) addition.

F508del‐CFTR = F508del‐CFTR (Homo sapiens, UniProt P13569, DEL508-508); assay: Ussing chamber apical Cl− current (ICl apical) in FRT epithelia expressing F508del‐CFTR; type: cell-based; parameters: assays at Charles River Laboratories (ChanTest); conditions: for EC50: F508del‐CFTR FRT epithelia, lumacaftor (5 μM) rescued, ICl apical, 27°C, read-out: EC50 (μM) (95% CI)
Chain of F508del‐CFTR (P13569 with tags, fused parts or gaps DEL508-508): as the sequence (P13569 whole entry F508del/G551D) above, with D550G counted along it
Procedure: Ussing chamber studies to determine the concentration–response relationships of CFTR potentiators (Figure 1c–f) were performed at Charles River Laboratories (ChanTest) (Cleveland, OH, USA). For these studies, FRT cells were stably transfected with CFTR cDNAs with the F508del and G551D variants and the common polymorphism M470 (synthesised by System Biosciences, Palo Alto, CA, USA) using the Flp‐In™ system (Thermo Fisher Scientific, Waltham, MA, USA). The F508del‐CFTR cDNA contained the following differences from the canonical CFTR cDNA sequence (NCBI Accession Number NM_000492): del CTT (1521–1523) to delete F508; synonymous changes T > C (798), A > G (801), T > C (804) to remove a cryptic bacterial promoter; synonymous change T > C (1095); G > A (1408) to give M470 and was amplified using the primers 5′ […] 3′ and 5′ […] 3′. The G551D‐CFTR cDNA contained the following differences from the canonical CFTR cDNA sequence (NCBI Accession Number NM_000492): G > A (1652) to replace G551 with D551; synonymous changes T > C (798), A > G (801), T > C (804) to remove a cryptic bacterial promoter; synonymous change A > C (516); synonymous change T > C (1095); G > A (1408) to give M470 and was amplified using the primers 5′ […] 3′ and 5′ […] 3′. Using Kpn1 and Not1 restriction sites, the F508del‐ and G551D‐CFTR cDNAs were inserted into pcDNA5/FRT (Flp‐In™) (RRID:Addgene_31984). […]
To test the effects of CP‐628006 on CFTR Cl^− channels in the apical membrane of FRT epithelia, we permeabilized the basolateral membrane with amphotericin B (100 μM). After cancelling voltage offsets, we clamped transepithelial voltage at 0 mV and measured apical Cl^− current (ICl ^apical) continuously using a Physiologic Instruments VCC MC6/8 multichannel voltage/current clamp (Li et al., [2004]).

With Cc1ncccc1CNC(=O)c1ccc2c(c1)CC[C@H]1C[C@](O)(CCC(F)(F)F)CC[C@]21Cc1ccccc1 (racemic) [CP‐628006, rac‐(4bR,7R,8aS)‐4b‐benzyl‐7‐hydroxy‐N‐((2‐methylpyridin‐3‐yl)methyl)‐7‐(3,3,3‐trifluoropropyl)‐4b,5,6,7,8,8a,9,10‐octahydrophenanthrene‐2‐carboxamide] the EC50 [1] was 0.14 µM, the Emax [1] was 18% and the EC50 (F508del‐CFTR) was > 0.5 µM.
For CC(C)(C)c1cc(C(C)(C)C)c(NC(=O)c2c[nH]c3ccccc3c2=O)cc1O [ivacaftor, reference compound], the EC50 [1] was 0.005 µM, the Emax [1] was 103% and the EC50 (F508del‐CFTR) was 0.002 µM. The Emax (F508del‐CFTR; read-out: Maximal effect (%) (95% CI)) was 103%.

Reference: paper PMC9304199, “A small molecule CFTR potentiator restores ATP‐dependent channel gating to the cystic fibrosis mutant G551D‐CFTR” (British Journal of Pharmacology, 2022)
